The source of these data is patent US20030092616A1, “STAT6 activation gene” (priority 2001, published 2003).

Series [1] has as its system STAT6. Briefly: Screening compounds inhibiting promotion of STAT6 activity (STAT6 reporter activity). It counts as cell-based. To be noted: 20 μM, mouse IL-4 1 ng/ml, 6 h; for inhibition of expression of the STAT6 reporter gene, control plasmid well: NIH3T3 cells with control plasmid pcDNA3.1 (+); for inhibition of expression of the STAT6 reporter gene (relative luciferase activity): NIH3T3 cells with plasmid for STAT6 activation-promoting protein of SEQ ID NO: 3, 17, 19, 218, 432 or 472, or nucleotide of SEQ ID NO: 64, FIGS. 1 to 7. The method, then: NIH3T3 cells were seeded on 10% FBS containing IMDM medium in a 96-well cell culture plate to a final cell density of 1×10^4 cells/100 μl/well, and cultured for 24 hours at 37° C. in the presence of 5% CO2. Then, 30 ng of the plasmid containing the nucleotide encoding the STAT6 activation-promoting protein of SEQ ID NO: 3, 17, 19, 218, 432 or 472, or the nucleotide of SEQ ID NO: 64, and 100 ng of the luciferase reporter plasmid having the STAT6 response sequence were cotransfected into the cells in a well using FuGENE 6. […] After 30 min of culture at 37° C., followed by 6 hours of culture with addition of mouse IL-4 to a final concentration of 1 ng/ml, the reporter activity was measured using PIKKA GENE LT2.0.
A general note: Reporter assays use an easily measured gene product as a stand-in for the process of interest.

Series [2] concerns STAT6. In words: Screening of full-length cDNA clones for promotion of STAT6 activation (luciferase reporter N4×8-luc). The note with it: NIH3T3 cells cotransfected with N4×8-luc reporter and cDNA plasmid; 48 h culture, then mouse IL-4 0.5 ng/ml for 6 h. It counts as cell-based. The essentials: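 Promotion of STAT6 activation scored as increase in luciferase signal over null-vector control cells. NIH3T3 cells carried N4×8-luc (100 ng) plus cDNA clone; after 48 h culture, 6 h stimulation with 0.5 ng/ml (final) mouse IL-4 preceded reading.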

Take `N#CC(C#N)=Cc1ccc(O)c(O)c1` [AG18]: in the series on STAT6 [1], the “inhibition of expression of the STAT6 reporter gene, control plasmid well” value is given as “no expression was inhibited at all” and the “inhibition of expression of the STAT6 reporter gene (relative luciferase activity)” value is on record as “inhibited”. In the same order, the values of `N#C/C(=C/c1ccc(O)c(O)c1)C(=O)NCc1ccccc1` [AG490] are “no expression was inhibited at all” and “inhibited”.

B1: 455 (nucleic acid, listed as Homo sapiens)
chain: ATGGTGTCCTGGATGATCTCCAGAGCCGTGGTGCTGGTGTTTGGAATGCTTTATCCTGCATATTATTCATACAAAGCTGTGAAAACAAAAAACGTGAAGGAATATGTTCGATGGATGATGTACTGGATTGTTTTTGCTCTCTATACTGTGATTGAAACAGTAGCCGATCAAACAGTTGCTTGGTTTCCCCTGTACTATGAGCTGAAGATTGCTTTTGTCATATGGCTGCTTTCTCCCTATACCAAAGGAGCAAGTTTAATATATAGAAAATTCCTTCATCCACTTCTTTCTTCAAAGGAAAGGGAGATTGATGATTATATTGTACAAGCAAAGGAACGAGGCTATGAAACCATGGTAAACTTTGGACGGCAAGGTTTAAACCTTGCAGCTACTGCTGCTGTTACTGCAGCAGTAAAGAGCCAAGGAGCAATAACTGAACGTTTAAGAAGCTTCAGTATGCATGATTTAACAACTATCCAAGGTGATGAGCCTGTGGGACAAAGACCATACCAACCTCTACCAGAAGCAAAAAAGAAAAGTAAACCAGCCCCCAGTGAATCAGCAGGTTATGGAATTCCACTGAAAGACGGAGATGAGAAAACAGATGAAGAAGCAGAGGGGCCATATTCAGATAATGAGATGTTAACACACAAAGGGCTTCGAAGATCGCAAAGCATGAAATCTGTGAAAACCACCAAAGGCCGCAAAGAGGTGCGGTACGGGTCACTAAAATACAAAGTGAAGAAACGACCACAAGTGTATTTTTAGTCATCTACACGTCAAATATCCC
modifications: CDS (1)..(765)
Regarding B1, the “Activity = (luciferase activity of the gene of each SEQ ID NO:)/(luciferase activity of pME18S-FL3)” value in the series with STAT6 [2] came to 3.3.

B2: 481 (nucleic acid, listed as Homo sapiens)
chain: GAAAGAGCCGAGTGGGCTCGAGGCCGACGCGACCATCGTTTGTCGACGCCGCTGCCACCGCCTGCCTGAGAGAAGTCGTCGCGGCCGACCCCGTCGCCTCCGCCGGCTACCATGTCCGCCCAGGCGCAGATGCGGGCCCTGCTGGACCAGCTCATGGGCACGGCTCGGGACGGAGACGAAACCAGACAGAGGGTCAAGTTTACAGATGACCGTGTCTGCAAGAGTCACCTTCTGGACTGCTGCCCCCATGACATCCTGGCTGGGACGCGCATGGATTTAGGAGAATGTACCAAAATCCACGACTTGGCCCTCCGAGCAGATTATGAGATTGCAAGTAAAGAAAGAGACCTGTTTTTTGAATTAGATGCAATGGATCACTTGGAGTCCTTTATTGCTGAATGTGATCGGAGAACTGAGCTCGCCAAGAAGCGGCTGGCAGAAACACAGGAGGAAATCAGTGCGGAAGTTTCTGCAAAGGCAGAAAAAGTACATGAGTTAAATGAAGAAATAGGAAAACTCCTTGCTAAAGCCGAACAGCTAGGGGCTGAAGGTAATGTGGATGAATCCCAGAAGATTCTTATGGAAGTGGAAAAAGTTCGTGCGAAGAAAAAAGAAGCTGAGGAAGAATACAGAAATTCCATGCCTGCATCCAGTTTTCAGCAGCAAAAGCTGCGTGTCTGCGAGGTCTGTTCAGCCTACCTTGGTCTCCATGACAATGACCGTCGCCTGGCAGACCACTTCGGTGGCAAGTTACACTTGGGGTTCATTCAGATCCGAGAGAAGCTTGATCAGTTGAGGAAAACTGTCGCTGAAAAGCAGGAGAAGAGAAATCAGGATCGCTTGAGGAGGAGAGAGGAGAGGGAACGGGAGGAGCGTCTGAGCAGGAGGTCGGGATCAAGAACCAGAGATCGCAGGAGGTCACGCTCCCGGGATCGGCGTCGGAGGCGGTCAAGATCTACCTCCCGAGAGCGACGGAAATTGTCCCGGTCCCGGTCCCGAGATAGACATCGGCGCCACCGCAGCCGTTCCCGGAGCCACAGCCGGGGACATCGTCGGGCTTCCCGGGACCGAAGTGCGAAATACAAGTTCTCCAGAGAGCGGGCATCCAGAGAGGAGTCCTGGGAGAGCGGGCGGAGCGAGCGAGGGCCCCCGGACTGGAGGCTTGAGAGCTCCAACGGGAAGATGGCTTCACGGAGGTCAGAAGAGAAGGAGGCCGGCGAGATCTGAACCCGTCTCCCGGGTGCTGTAAATAGTCTGATAAACGTTCACACAGTCTAAAATTACCCTTTATATTTGCTGAATACAACTCATCTTTTGTAGTTTAAAATTTCTATTGTTTTGGAGCTAGCTGTGAGTTTCTAGAAGTGTACAGAGTTGCTCCTGTGTTCCCGGGTCATGTTGAGTAGGAATAAATAAATCTGATGCTGCCTCCTGAGGCTGCGGGGGGTTT
modifications: CDS (112)..(1224)
In the case of B2, in the series on STAT6 [2], the “Activity = (luciferase activity of the gene of each SEQ ID NO:)/(luciferase activity of pME18S-FL3)” value stood at 6.4.

B3: 177 (nucleic acid, listed as Homo sapiens)
chain: AAACGAAACGGTAACCAGCCCTGGGAAGCCCGCAAGAGGCCTCAGCGGTGGCCGTCCGAGCGCCGAGAGGTGAGGGTGCCCCCGCCTCACCTGCAGAGGGGCCGTTCCGGGCTCGAACCCGGCACCTTCCGGAAAATGGCGGCTGCCAGGCCCAGCCTGGGCCGAGTCCTCCCAGGATCCTCTGTCCTGTTCCTGTGTGACATGCAGGAGAAGTTCCGCCACAACATCGCCTACTTCCCACAGATCGTCTCAGTGGCTGCCCGCATGCTCAAGGTGGCCCGGCTGCTTGAGGTGCCAGTCATGCTGACGGAGCAGTACCCACAAGGCCTGGGCCCCACGGTGCCCGAGCTGGGGACTGAGGGCCTTCGGCCGCTGGCCAAGACCTGCTTCAGCATGGTGCCTGCCCTGCAGCAGGAGCTGGACAGTCGGCCCCAGCTGTGCTCTGTGCTGCTCTGTGGCATTGAGGCACAGGCCTGCATCTTGAACACGACCCTGGACCTCCTAGACCGGGGGCTGCAGGTCCATGTGGTGGTGGACGCCTGCTCCTCACGCAGCCAGGTGGACCGGCTGGTGGCTCTGGCCCGCATGAGACAGAGTGGTGCCTTCCTCTCCACCAGCGAAGGGCTCATTCTGCAGCTTGTGGGCGATGCCGTCCACCCCCAGTTCAAGGAGATCCAGAAACTCATCAAGGAGCCCGCCCCAGACAGCGGACTGCTGGGCCTCTTCCAAGGCCAGCTGCTCCCGGAAATGCAAATGAGACTCCTGGAAACTGGGTGGGAATTGGCTGAGCCGAGATGGAGGCGGGGCTCGGCCCCGGGCCACTTCACGGGGCGGGAAGGGGAGGGGAAGAAGAGTCTCAGACTGTGGGACACGGACTCGCAGAATAAACATATATGTGGCTGTG
modifications: CDS (136)..(903)
B3: the “Activity = (luciferase activity of the gene of each SEQ ID NO:)/(luciferase activity of pME18S-FL3)” value in the series on STAT6 [2] worked out at 22.6.
